# Data: US20160109438A1, “PROTEASE-RESPONSIVE PEPTIDE BIOSENSORS AND METHODS FOR ANALYTE DETECTION” (AGENCY FOR SCIENCE, TECHNOLOGY AND RESEARCH, priority 2013, published 2016)
# Tests used:
# Mdm2 = biological target: T1, Mdm2 (Homo sapiens, UniProt Q00987); assay: Mdm2-enterokinase sensor assay; format: biochemical; conditions: for substrate turnover (time course): sensor with enterokinase and mdm2, compared with DMSO only
# T1 construct: derived from N-terminal domain (amino acids 18-125) of wild type Mdm2 protein; 10x His; made in house; host or cells: E. coli
# T1 sequence (Q00987 18-125, species assumed): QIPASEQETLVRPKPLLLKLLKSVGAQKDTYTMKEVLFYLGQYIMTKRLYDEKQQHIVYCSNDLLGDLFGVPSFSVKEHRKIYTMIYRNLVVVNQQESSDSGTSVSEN
# Description: Nutlin was used as the positive control and a mutant p53 peptide, which cannot bind to Mdm2 was used as the negative control. The reaction was monitored using absorbance measurements at OD492 on a Perkin Elmer plate reader every 2 min. The signal was calculated from reading 5 minus reading 3. This assay was repeated three times and the average gradient value with standard error was reported.
# The screening was divided into two steps. In the first step, the screening was carried out at the fixed compound concentration of […]. In the second step, a dose-response experiment of different hits found in the first step was conducted. […] The OD492 value of read number 3 was subtracted from that of read number 5 (OD492 readings were taken every 2 min) which was designated as signal. […] Fold change=Gradient of Hits (Reading 5−Reading 3)/Gradient of control (Reading 5−Reading 3)
# Mdm2 N-terminal domain = Mdm2 N-terminal domain (Homo sapiens, UniProt Q00987); assay: Protease exclusion sensor using fluorescence labeled internally quenched peptide (P1); conditions: for response of the peptide sensor (rate of fluorescence increase): various concentrations, with enterokinase and Mdm2
# Chain of Mdm2 N-terminal domain (Q00987 18-125): as the sequence (Q00987 18-125, species assumed) above
# HA antibody / HA epitope = assay: HA-enterokinase sensor assay; format: biochemical; conditions: 0 nM, 4 nM, 40 nM, 400 nM and 4000 nM; enterokinase and HA antibody present
# HA antibody = assay: Thrombin-HA protease exclusion sensor; format: biochemical
# From the text: An HA-antibody binds to the HA epitope ([…]; SEQ ID NO:3). The Binding of an anti-HA antibody to its epitope would disallow protease, access to its recognition site due to steric obstruction by the higher affinity HA antibody. Addition of excess HA peptide should sequester the HA antibody, leading to renewed protease access to its recognition site, bringing about increased enzyme activity in response to the HA peptide. […] Starting from the left, the rate of substrate turnover is shown after 0 nM, 4 nM, 40 nM, 400 nM and 4000 nM addition of free HA peptide to the tested sensor.
# [1] = biological target: HA antibody (clone not named, FIG. 3B and FIG. 8B); assay: cell-based or functional assay
# [2] = biological target: T2, Mdm2 N-terminal domain (amino acids 18-125) of wild type Mdm2 protein engineered with 10x His tag (UniProt Q00987 18-125); assay: Mdm2-enterokinase sensor assay, substrate turnover at OD492
# T2 construct: range 18-125; expressed in E. coli; also called Mdm2 N-terminus; Mdm2 N terminus
# T2 sequence (Q00987 18-125 limits assumed, change not shown): as the sequence (Q00987 18-125, species assumed) above
molecule,measurement,setting,value
O=c1[nH]cc(F)c(=O)[nH]1 [5 FU],substrate turnover (time course),Mdm2,does not lead to increased turnover
ETASDLAKLAP (mutated p53 peptide) [mutant p53 peptide],substrate turnover (time course),Mdm2,does not lead to increased turnover
same,response of the peptide sensor (rate of fluorescence increase),Mdm2 N-terminal domain,not
"HA peptide: free peptide of the influenza hemagglutinin (HA) epitope, sequesters the HA antibody",substrate turnover after addition of free HA peptide,HA antibody / HA epitope,concentration-dependent increase of substrate turnover
same,rate of substrate turnover,"HA antibody; thrombin and HA antibody, varying amounts of free peptide",increases with increasing amount
same,amount of peptide giving the highest substrate turnover,HA antibody; thrombin-HA protease exclusion sensor,400 nM
Nutlin,substrate turnover (time course),Mdm2,substrate turnover increases substantially
same,rate of turnover of substrate in response to various amounts,Mdm2; various amounts of competitor,increased turnover signal
same,detectable concentrations,Mdm2 N-terminal domain; signal to noise ratio ~5-6x,low micromolar
same,response of the peptide sensor (rate of fluorescence increase),Mdm2 N-terminal domain,strong response
free HA peptide,HA peptide concentration with the highest substrate turnover (thrombin-HA protease exclusion sensor),[1],400 nM
ETASDLAKLAP (Synthetic negative control peptide; also called peptide C) [mutant p53 peptide with critical residues mutated to alanine (ETASDLAKLAP)],binding result,[2],no binding
